# Assay results: patent US8268809B2, “Kinase inhibitors for preventing or treating pathogen infection and method of use thereof” (priority 2006, dated 2012)
# “Also recorded” adds a separate entry of the source.
# System: vaccinia virus
# Assay type: cell-based
# Throughout, for VACCINIA PLAQUE ASSAY 2: test concentration or dose not given here.
Compound,Class category of infected monolayers in plaque assay,VACCINIA PLAQUE ASSAY 2,VACCINIA Plaque Assay,"Plaque phenotype due to drug treatment (FIGS. 1, 2, 4)"
Cc1ccc(NC(=O)c2ccc(CN3CCN(CCO)CC3)cc2)cc1Nc1nccc(-c2cccnc2)n1 [STI-OH],Class III,SMALL PLAQUES,PINPOINT PLAQUES,
Cn1c(=O)c(-c2c(Cl)cccc2Cl)cc2cnc(NC3CCN(Cc4ccccc4)CC3)nc21 [YYA188],Class III,NO PLAQUES,NO PLAQUES,
COc1ccc(-c2n[nH]c3nc(-c4ccc(O)cc4OC)ccc23)cc1 [APcK-31],,SMALL PLAQUES,,
CC(=O)Nc1cccc(-c2ccc3c(-c4ccc(C#N)cc4)n[nH]c3n2)c1 [APcK-44],Class III,PINPOINT PLAQUES,SMALL PLAQUES WITH COMETS,
CC(C)c1ccc(Nc2nccn3c(Br)cnc23)cc1 [LG2-60],,NO PLAQUES,,
COc1cccc(-c2cc(Nc3cccc(S(=O)(=O)Nc4ccccc4OC)c3)ncn2)c1 [Eph2_wbz 112],Class III,PINPOINT,SMALL PLAQUES,
COc1ccccc1Nc1cc(-c2ccc(O)cc2)ncn1 [Eph2_wbz 202],Class III,PINPOINT PLAQUES,"PLAQUES SMALLER THAN WT, STILL SEE COMETS",
COC(=O)C1(Cc2ccccc2)OC(=O)C(O)=C1c1ccccc1 (stereo not drawn) [butyro- lactones-1],,,SMALL PLAQUES WITH LARGE TAILS OR CPE,more plaque formations than wild type; also recorded: more plaques than WT
COc1cc(-c2cnc3c(Nc4ccccc4)nccn23)ccc1O [LG2-62],Class II,SMALL PLAQUES,SMALLER PLAQUES THAN WT,
CCOC(=O)c1ccc(-c2n[nH]c3nc(-c4ccc5cc[nH]c5c4)ccc23)cc1 [APcK-58],,NO PLAQUES,,
COc1cccc(-c2cnc3c(Nc4ccccc4)nccn23)c1 [LG2-85],Class III,NO PLAQUES,PINPOINT PLAQUES,
COc1ccccc1Nc1cc(-c2ccc3[nH]ccc3c2)ncn1 [Eph2_wbz 216],Class III,NO PLAQUES,SLIGHTLY SMALLER PLAQUES,
COc1ccc(Nc2nccn3c(-c4cccc(C(N)=O)c4)cnc23)cc1 [LG2-13],Class III,SLIGHTLY SMALLER PLAQUES,PINPOINT PLAQUES,
COc1ccccc1Nc1cc(-c2ccc(NC(C)=O)cc2)ncn1 [Eph2_wbz 206],Class II,SMALL PLAQUES,"SMALL PLAQUES, COMETS?",small plaques with comets
CN(C)CCNC(=O)c1ccc(-c2cnc3c(Nc4ccc(Oc5ccccc5)cc4)nccn23)cc1 [LG2-11],Class III,NO PLAQUES,"CPE, PINPOINT PLAQUES",
CCOC(=O)c1ccc(-c2ccc3c(-c4ccc(C(=O)OCC)cc4)n[nH]c3n2)cc1 [APcK-48],Class III,SMALL PLAQUES,PINPOINT PLAQUES,
COc1ccc(OC)c(S(=O)(=O)Nc2cccc(-c3ccc4nnc(-c5cccs5)n4n3)c2)c1 [YYB44],Class II,SMALL PLAQUES,MEDIUM PLAQUES,
O=C(Nc1cccc(-c2ccc(Cl)nn2)c1)c1cccc([N+](=O)[O-])c1 [YYB19],Class III,NO PLAQUES,PINPOINT PLAQUES,
COc1ccc(-c2n[nH]c3nc(-c4cccc(NC(C)=O)c4)ccc23)cc1 [APcK-101],,,,damaged monolayer
CC(=O)Nc1cccc(-c2ccc3c(-c4ccc(F)c(C)c4)n[nH]c3n2)c1 [APcK-102],Class III,NO PLAQUES,SMALLER PLAQUES THAN WT,
O=C(Nc1cccc(-c2ccc3nncn3n2)c1)c1cccc([N+](=O)[O-])c1 [YYB31],Class III,PINPOINTS,FEW COMETS,
O=C(NCCO)c1cccc(-c2cnc3c(NCc4cccs4)nccn23)c1 [LG2-98],Class III,PINPOINTS,"SMALL PLAQUES, WITH TAILS",
COc1ccccc1NS(=O)(=O)c1cccc(Nc2cc(-c3ccc(C(=O)O)cc3)ncn2)c1 [Eph2_wbz 104],Class III,SLIGHTLY SMALLER PLAQUES,NO PLAQUES,

Compound,Class category of infected monolayers in plaque assay,VACCINIA PLAQUE ASSAY 2,VACCINIA Plaque Assay,"Plaque phenotype due to drug treatment (FIGS. 1, 2, 4)"
O=C(NCCO)c1cccc(-c2cnc3c(NCc4ccc(F)cc4)nccn23)c1 [LG2-96],Class III,NO PLAQUES,NO PLAQUES,no pinpoint plaque formed; also recorded: no plaques
CC(=O)Nc1cccc(-c2ccc3c(-c4ccc(Cl)c(F)c4)n[nH]c3n2)c1 [APcK-104],Class III,PINPOINT PLAQUES,SMALLER PLAQUES THAN WT. NO COMETS,
Cn1c(=O)c(-c2c(Cl)cccc2Cl)cc2cnc(NC3CCCCC3)nc21 [YYA194],Class III,NO PLAQUES,PINPOINT PLAQUES,
Cc1ccc(-n2c(=O)[nH]c3c(C(N)=O)nc(-c4ccc(-c5cccs5)s4)nc32)cc1 [dm-I-184],,SLIGHTLY SMALLER PLAQUES,,
Cc1cc(-c2ccc3c(-c4ccc(Cl)c(F)c4)n[nH]c3n2)cc(C)c1O [APcK-107],Class II,SMALLER PLAQUES THAN WT,SMALLER PLAQUES THAN WT,
"CN1CCOc2cc(/C=C3\SC(=O)NC3=O)ccc21 [AS-605091, reference compound]",Class III,PINPOINT PLAQUES,SMALL PLAQUES,
CCOC(=O)c1ccc(-c2n[nH]c3nc(-c4cc(C)c(O)c(C)c4)ccc23)cc1 [APcK-106],Class III,PINPOINT PLAQUES,SMALLER PLAQUES THAN WT,
O=C(Nc1cccc(-c2ccc3nnc(-c4cccs4)n3n2)c1)c1cccc([N+](=O)[O-])c1 [YYB32],Class III,SMALL PLAQUES,SMALLER PLAQUES,
COc1cc(OC)cc(-c2cnc3c(NCC4CC4)nccn23)c1 [LG2-102],Class III,NO PLAQUES,NO PLAQUES,
O=C(Nc1cccc(-c2ccc3nnc(-c4ccc[nH]4)n3n2)c1)c1cccc([N+](=O)[O-])c1 [YYB34],,,LARGE COMETS,
Cn1c(=O)c(-c2c(Cl)cccc2Cl)cc2cnc(Nc3cccc(N)n3)nc21 [YYA104],Class III,NO PLAQUES,PINPOINT PLAQUES,
Cn1c(=O)c(-c2c(Cl)cccc2Cl)cc2cnc(Nc3ccc(Br)cc3)nc21 [PD-Br],Class III,NO PLAQUES,"SMALL PLAQUES, CPE",
COc1ccc(-c2n[nH]c3nc(-c4ccc(C(=O)c5ccccc5)cc4)ccc23)cc1 [APcK-34],,,"SMALL PLAQUES, LARGE COMETS",small plaque and large comets; also recorded: small plaques with large comets
CC(=O)Nc1cccc(-c2ccc3c(-c4ccc(Cl)cc4Cl)n[nH]c3n2)c1 [APcK-40],Class III,PINPOINT PLAQUES,SLIGHTLY SMALLER PLAQUES,
CCOC(=O)c1ccc(-c2n[nH]c3nc(-c4cc(OC)cc(OC)c4)ccc23)cc1 [APcK-108],Class III,SMALL PLAQUES,PINPOINT PLAQUES,pinpoint plaque formations; also recorded: pinpoint plaques
CCOC(=O)c1ccc(-c2ccc3c(-c4ccc(C#N)cc4)n[nH]c3n2)cc1 [APcK-55],,NO PLAQUES,,
COc1cc(C(=O)Nc2cccc(-c3ccc4nnc(-c5ccccc5)n4n3)c2)cc(OC)c1OC [YYB21],,,,damaged monolayer
CC(=O)Nc1ccc(-c2ccc3c(-c4ccc(Br)c(F)c4)n[nH]c3n2)cc1 [APcK-20],,NO PLAQUES,,
O=C(Nc1cccc(-c2ccc(Cl)nn2)c1)Oc1ccccc1 [LG2-111],,,PINPOINT PLAQUES,
O=C(c1ccccc1)c1ccc(-c2ccc3c(-c4ccc(Cl)c(F)c4)n[nH]c3n2)cc1 [APcK-35],Class III,NO PLAQUES,"SMALL PLAQUES, NO COMETS",
Cc1ccc(-n2c(=O)[nH]c3c(C(N)=O)nc(C4CCCCC4)nc32)cc1 [dm-I-203],Class III,PINPOINTS,SMALL PLAQUES,
Cc1ccc(NC(=O)c2ccc(CN3CCN(C)CC3)cc2)cc1Nc1nccc(-c2cnccc2C)n1 [StiAF3_Ue],Class III,NO PLAQUES,NO PLAQUES,
COc1ccc(-c2nc(C(N)=O)c3[nH]c(=O)n(-c4ccc(C)cc4)c3n2)cc1OC [dm-I-196],Class III,PINPOINTS,"SMALL PLAQUES, NO TAILS",small plaques with no comets; also recorded: smaller (pinpoint) plaques with no comets
